Results from PMC9728188, “Cloning and Functional Characterization of Putative Escherichia coli ABC Multidrug Efflux Transporter YddA” (Journal of Microbiology and Biotechnology, 2020).

What was measured:
Format in all cases: cell-based
YddA [1] = biological target: T1, YddA (Escherichia coli, UniProt P31826); assay: fluorescence efflux and accumulation assays in whole cells, yddA knockout vs parent strains; also inhibits norfloxacin efflux
YddA [2] = biological target: T1, YddA; assay: fluorescence efflux and accumulation assays in whole cells, yddA knockout vs parent strains
YddA [3] = biological target: T1, YddA; assay: inhibition of norfloxacin efflux in whole cells (fluorescence)
Description: inhibition of norfloxacin efflux in whole cells (fluorescence) on YddA | Efflux of norfloxacin by YddA transporter was inhibited by reserpine

T1 sequence (P31826 whole entry): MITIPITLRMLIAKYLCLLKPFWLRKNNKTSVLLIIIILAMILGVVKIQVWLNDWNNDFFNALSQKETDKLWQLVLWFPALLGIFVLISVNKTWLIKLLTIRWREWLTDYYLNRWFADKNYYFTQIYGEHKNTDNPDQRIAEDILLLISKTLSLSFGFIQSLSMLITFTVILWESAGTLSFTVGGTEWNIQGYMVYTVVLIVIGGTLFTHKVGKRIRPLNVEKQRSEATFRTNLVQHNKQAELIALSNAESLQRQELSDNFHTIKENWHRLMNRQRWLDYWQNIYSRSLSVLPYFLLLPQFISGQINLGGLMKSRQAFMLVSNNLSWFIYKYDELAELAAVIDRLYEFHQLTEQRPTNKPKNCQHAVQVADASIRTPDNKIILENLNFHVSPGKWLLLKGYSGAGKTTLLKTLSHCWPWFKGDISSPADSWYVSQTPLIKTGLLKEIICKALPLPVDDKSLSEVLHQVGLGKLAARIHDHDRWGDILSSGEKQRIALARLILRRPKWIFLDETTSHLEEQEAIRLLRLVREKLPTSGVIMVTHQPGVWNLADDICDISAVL

**Q.** Which “fluorescence efflux and accumulation assays in whole cells, yddA knockout vs par” value (YddA [1]) does the source give for `CC[n+]1c(-c2ccccc2)c2cc(N)ccc2c2ccc(N)cc21` [EB, ethidium bromide] here?
**A.** indicating that yddA knockout reduced EB efflux, which increased the accumulation of EB in cells

**Q.** `CCn1cc(C(=O)O)c(=O)c2cc(F)c(N3CCNCC3)cc21` [norfloxacin] was tested. Which “fluorescence efflux and accumulation assays in whole cells, yddA knockout vs par” value (YddA [2]) did it give?
**A.** The results showed that knockout of yddA led to less norfloxacin efflux out of cells.

**Q.** `COC(=O)[C@H]1[C@H]2C[C@@H]3c4[nH]c5cc(OC)ccc5c4CCN3C[C@H]2C[C@@H](OC(=O)c2cc(OC)c(OC)c(OC)c2)[C@@H]1OC` [reserpine] was tested. Which IC50 (YddA [3]) did it give?
**A.** 120 µM
